Target: T1, Peroxisome proliferator-activated receptor alpha (Rattus norvegicus, UniProt P37230)
T1 sequence (P37230 whole entry): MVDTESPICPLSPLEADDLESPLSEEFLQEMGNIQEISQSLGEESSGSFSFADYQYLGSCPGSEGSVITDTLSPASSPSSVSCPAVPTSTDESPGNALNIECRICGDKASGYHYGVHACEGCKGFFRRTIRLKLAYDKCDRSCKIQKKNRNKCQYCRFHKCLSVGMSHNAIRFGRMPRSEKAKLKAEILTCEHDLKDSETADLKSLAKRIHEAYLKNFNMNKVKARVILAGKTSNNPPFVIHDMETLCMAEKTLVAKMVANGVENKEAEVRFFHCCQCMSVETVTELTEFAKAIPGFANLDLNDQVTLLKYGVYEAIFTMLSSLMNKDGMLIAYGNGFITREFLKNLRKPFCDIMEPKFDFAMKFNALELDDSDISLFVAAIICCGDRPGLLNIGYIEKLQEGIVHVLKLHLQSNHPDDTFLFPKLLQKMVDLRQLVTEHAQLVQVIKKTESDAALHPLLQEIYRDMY
Test: Agonist activity at rat PPARalpha in rat H4IIE cells assessed as gene induction
Assay type: functional, cell-based

Compound | EC50 [nM]
CC(C)(Oc1ccc(C2CC2(Cl)Cl)cc1)C(=O)O (stereo not given) [CIPROFIBRATE] | > 10000
CCN(C(=O)Nc1ccc(OC(F)(F)F)c(Br)c1)C1Cc2ccc(SC(C)(C)C(=O)O)cc2C1 (stereo not given) | > 3000
CCN(C(=O)Nc1ccc(OC(F)(F)F)cc1Br)C1Cc2ccc(SC(C)(C)C(=O)O)cc2C1 (stereo not given) | > 1000
CC(C)(Sc1ccc2c(c1)CC(N(CCCC(F)(F)F)C(=O)Nc1ccc(OC(F)(F)F)cc1)C2)C(=O)O (stereo not given) | 707
COCCN(C(=O)Nc1ccc(OC(F)(F)F)cc1)C1Cc2ccc(SC(C)(C)C(=O)O)cc2C1 (stereo not given) | 425
CCCCCCCN(C(=O)Nc1ccccc1C(F)(F)F)C1Cc2ccc(SC(C)(C)C(=O)O)cc2C1 (stereo not given) | 6390
CCCCCCCN(C(=O)Nc1ccc(SC)cc1)C1Cc2ccc(SC(C)(C)C(=O)O)cc2C1 (stereo not given) | 419
CCCCCCCN(C(=O)Nc1cccc(C(F)(F)F)c1)C1Cc2ccc(SC(C)(C)C(=O)O)cc2C1 (stereo not given) | 2730
CCCCCCCN(C(=O)Nc1ccc(OC(F)(F)F)cc1)[C@H]1Cc2ccc(SC(C)(C)C(=O)O)cc2C1 | > 13000
CC(C)CCN(C(=O)Nc1ccc(OC(F)(F)F)cc1)C1Cc2ccc(SC(C)(C)C(=O)O)cc2C1 (stereo not given) | 386
CCCCCCCN(C(=O)Nc1ccccc1C)C1Cc2ccc(SC(C)(C)C(=O)O)cc2C1 (stereo not given) | 7540
CN(C(=O)Nc1ccc(OC(F)(F)F)cc1)C1Cc2ccc(SC(C)(C)C(=O)O)cc2C1 (stereo not given) | 2850
CCCCCCCCN(C(=O)Nc1ccc(OC(F)(F)F)cc1)C1Cc2ccc(SC(C)(C)C(=O)O)cc2C1 (stereo not given) | 1030
CCCCCN(C(=O)NC1Cc2ccc(SC(C)(C)C(=O)O)cc2C1)c1ccc(OC(F)(F)F)cc1 (stereo not given) | > 5000
CCCCCCCN(C(=O)Nc1cccc(F)c1)C1Cc2ccc(SC(C)(C)C(=O)O)cc2C1 (stereo not given) | 2670
CCN(C(=O)N(C)c1ccc(OC(F)(F)F)cc1)C1Cc2ccc(SC(C)(C)C(=O)O)cc2C1 (stereo not given) | > 1000
CCCCCCCN(C(=O)Nc1ccccc1SC(F)(F)F)C1Cc2ccc(SC(C)(C)C(=O)O)cc2C1 (stereo not given) | 1960
CCCCCCCN(C(=O)Nc1ccc(C(F)(F)F)cc1)C1Cc2ccc(SC(C)(C)C(=O)O)cc2C1 (stereo not given) | 1270
CCN(C(=O)Nc1ccc(OC(F)(F)F)cc1C)C1Cc2ccc(SC(C)(C)C(=O)O)cc2C1 (stereo not given) | 598
CCCCCCCN(C(=O)Nc1ccccc1)C1Cc2ccc(SC(C)(C)C(=O)O)cc2C1 (stereo not given) | > 10000
CCCCN(C(=O)Nc1ccc(N(C)C)cc1)C1Cc2ccc(SC(C)(C)C(=O)O)cc2C1 (stereo not given) | 561
CCCCCCCN(C(=O)Nc1ccccc1F)C1Cc2ccc(SC(C)(C)C(=O)O)cc2C1 (stereo not given) | > 10000

These reach a lower EC50. Values come first.

EC50 [nM] | Compound
260 | CCCCN(C(=O)Nc1ccc(C(C)C)cc1)C1Cc2ccc(SC(C)(C)C(=O)O)cc2C1 (stereo not given)
252 | CCCCCCCN(C(=O)Nc1ccc(N(C)C)cc1)C1Cc2ccc(SC(C)(C)C(=O)O)cc2C1 (stereo not given)
249 | CCCCCCN(C(=O)Nc1ccc(SC(F)(F)F)cc1)C1Cc2ccc(SC(C)(C)C(=O)O)cc2C1 (stereo not given)
229 | CCCCCCCN(C(=O)Nc1ccc(C(C)C)cc1)C1Cc2ccc(SC(C)(C)C(=O)O)cc2C1 (stereo not given)
219 | CCCCCCN(C(=O)Nc1ccc(N(C)C)cc1)C1Cc2ccc(SC(C)(C)C(=O)O)cc2C1 (stereo not given)
210 | CCCCCCCN(C(=O)Nc1ccc(SC(F)(F)F)cc1)C1Cc2ccc(SC(C)(C)C(=O)O)cc2C1 (stereo not given)
195 | CCCCN(C(=O)Nc1ccc(OC(F)(F)F)cc1)C1Cc2ccc(SC(C)(C)C(=O)O)cc2C1 (stereo not given)
180 | CCCCCCN(C(=O)Nc1ccc(C(C)C)cc1)C1Cc2ccc(SC(C)(C)C(=O)O)cc2C1 (stereo not given)
169 | CCCCCCCN(C(=O)Nc1ccc(OC(F)(F)F)cc1)[C@@H]1Cc2ccc(SC(C)(C)C(=O)O)cc2C1
166 | CCCCCCN(C(=O)Nc1ccc(OC(F)(F)F)cc1)C1Cc2ccc(SC(C)(C)C(=O)O)cc2C1 (stereo not given)
165 | CCN(C(=O)Nc1ccc(OC(F)(F)F)cc1)[C@H]1Cc2ccc(SC(C)(C)C(=O)O)cc2C1
159 | CCCCCN(C(=O)Nc1ccc(C(C)C)cc1)C1Cc2ccc(SC(C)(C)C(=O)O)cc2C1 (stereo not given)
96 | CC(C)(Sc1ccc2c(c1)CC(NC(=O)Nc1ccc(OC(F)(F)F)cc1)C2)C(=O)O (stereo not given)

From ChEMBL document CHEMBL1141364, “Design and synthesis of indane-ureido-thioisobutyric acids: A novel class of PPARalpha agonists” (Bioorg Med Chem Lett, 2007)
